Test results from patent US8501767B2, “Imidazopyridines and imidazopyrimidines as HIV-1 reverse transcriptase inhibitors” (CSIR, priority 2008, dated 2013).

Assays:
[1] = molecular target: HIV-1 reverse transcriptase (Human immunodeficiency virus type 1 group M subtype B (isolate HXB2) (HIV-1), UniProt P04585); assay: Enzymatic assay against HIV-1 reverse transcriptase (sandwich-ELISA, ROCHE colorimetric reverse transcriptase kit); assay type: biochemical; details: 4-fold serial dilutions
Experimental: Enzymatic Method for Determining Activity Against Reverse Transcriptase
Biotin and DIG-labelled nucleotides are incorporated into cDNA strands polymerized on an RNA template by the action of HIV-1 reverse transcriptase. The cDNA products are bound to streptavidin-coated wells of 96-well plate inserts, and their associated DIG-moieties detected by incubation with anti-DIG antibodies conjugated to horseradish peroxidase (HRP).
In the single concentration screen, compounds are incubated with HIV-1 reverse trancriptase and substrate and the residual enzyme activity expressed as a percentage relative to a control without inhibitor.

[2] = system: HIV-1; assay: Whole cell MAGI anti-HIV assay (MAGI-R5 cells, LTR-β-galactosidase reporter); assay type: cell-based; details: Human immunodeficiency virus 1, MAGI
[3] = system: HIV-1; assay: Whole cell PBMC anti-HIV assay (human PBMCs, supernatant reverse transcriptase activity); assay type: cell-based; details: Human immunodeficiency virus 1, PBMC
Experimental: Fresh human PBMCs, seronegative for HIV and HBV, were isolated from screened donors (Interstate Blood Bank, Inc. Memphis, Tenn.). Cells were pelleted/washed 2-3 times by low speed centrifugation and re-suspension in PBS to remove contaminating platelets. The Leukophoresed blood was then diluted 1:1 with Dulbecco's Phosphate Buffered Saline (DPBS) and layered over 14 mL of Lymphocyte Separation Medium (LSM; Cellgro® by Mediatech, Inc.; density 1.078+/−0.002 g/ml; Cat.#85-072-CL) in a 50 mL centrifuge tube and then centrifuged for 30 minutes at 600×g. Banded PBMCs were gently aspirated from the resulting interface and subsequently washed 2× with PBS by low speed centrifugation. […]
For the standard PBMC assay, PHA-P stimulated cells from at least two normal donors were pooled (mixed together), diluted in fresh medium to a final concentration of 1×10^6 cells/mL, and plated in the interior wells of a 96 well round bottom microplate at 50 μl/well (5×10^4 cells/well) in a standard format developed by the Infectious Disease Research department of Southern Research Institute. Pooling (mixing) of mononuclear cells from more than one donor is used to minimize the variability observed between individual donors, which results from quantitative and qualitative differences in HIV infection and overall response to the PHA and IL-2 of primary lymphocyte populations. […]

Compound	IC50 [1] [µM]	IC50 [2] [µM]	IC50 [3] [µM]
Clc1ccccc1-c1nc2ccc(Br)cn2c1NC1CCCCC1 [Compound 99, 6-bromo-2-(2-chlorophenyl)-N-cyclohexylimidazo[1,2-a]pyridin-3-amine]	12.2	2.19	
Cc1ccnc2c1NC(=O)c1cccnc1N2C1CC1 [Nevirapine, reference compound]		0.1	0.033
Cc1cccc2nc(-c3ccccc3Cl)c(NC3CCCCC3)n12 [Compound 166, 2-(2-chlorophenyl)-N-cyclohexyl-5-methylimidazo[1,2-a]pyridin-3-amine]	1.55		
Clc1ccccc1-c1nc2cccc(Cl)n2c1NC1CCCCC1 [Compound 104, 5-chloro-2-(2-chlorophenyl)-N-cyclohexylimidazo[1,2-a]pyridin-3-amine]	3.74		
Brc1ccccc1-c1nc2ccccn2c1NC1CCCCC1 [Compound 43, 2-(2-bromophenyl)-N-cyclohexylimidazo[1,2-a]pyridin-3-amine]	10	2.21	
Clc1ccccc1-c1nc2ccc3ccccc3n2c1NC1CCCCC1 [Compound 97, 2-(2-chlorophenyl)-N-cyclohexylimidazo[1,2-a]quinolin-1-amine]	7.52		
Clc1ccccc1-c1nc2ccccn2c1NC1CCCC1 [Compound 118, 2-(2-chlorophenyl)-N-cyclopentylimidazo[1,2-a]pyridin-3-amine]		2.19	
Clc1ccc(-c2nc3ccccn3c2NC2CCCCC2)c(Cl)c1 [Compound 89, N-cyclohexyl-2-(2,4-dichlorophenyl)imidazo[1,2-a]pyridin-3-amine]	21.8	2.95	
Clc1ccccc1-c1nc2cccc(Br)n2c1NC1CCCCC1 [Compound 42, 5-bromo-2-(2-chlorophenyl)-N-cyclohexylimidazo[1,2-a]pyridin-3-amine]	4.62	3.15	
N#Cc1cccc2nc(-c3ccccc3Cl)c(NC3CCCCC3)n12 [Compound 116, 2-(2-chlorophenyl)-3-(cyclohexylamino)imidazo[1,2-a]pyridine-5-carbonitrile]	3.47		
Clc1ccc2nc(-c3ccccc3Cl)c(NC3CCCCC3)n2c1 [Compound 82, 6-chloro-2-(2-chlorophenyl)-N-cyclohexylimidazo[1,2-a]pyridin-3-amine]	14.5	0.84	
Cc1cccc2nc(-c3ccccc3Cl)c(NC3CCCC3)n12 [Compound 171, 2-(2-chlorophenyl)-N-cyclopentyl-5-methylimidazo[1,2-a]pyridin-3-amine]	1.43		
Cc1ccc2nc(-c3ccccc3Cl)c(NC3CCCCC3)n2c1 [Compound 163, 2-(2-chlorophenyl)-N-cyclohexyl-6-methylimidazo[1,2-a]pyridin-3-amine]	5.39		
N#Cc1ccc2nc(-c3ccccc3Cl)c(NC3CCCCC3)n2c1 [Compound 96, 2-(2-chlorophenyl)-3-(cyclohexylamino)imidazo[1,2-a]pyridine-6-carbonitrile]	6.6	0.63	
Clc1ccccc1-c1nc2cccc(Cl)n2c1NC1CCCC1 [Compound 48, 5-chloro-2-(2-chlorophenyl)-N-cyclopentylimidazo[1,2-a]pyridin-3-amine]	5.14		
Cc1cccn2c(NC3CCCC3)c(-c3ccccc3Cl)nc12 [Compound 170, 2-(2-chlorophenyl)-N-cyclopentyl-8-methylimidazo[1,2-a]pyridin-3-amine]	15.9		
Clc1ccccc1-c1nc2ccccn2c1NC1CCCCC1 [Compound 8, 2-(2-chlorophenyl)-N-cyclohexylimidazo[1,2-a]pyridin-3-amine]			0.16
Fc1ccc2nc(-c3ccccc3Cl)c(NC3CCCCC3)n2c1 [Compound 81, 2-(2-chlorophenyl)-N-cyclohexyl-6-fluoroimidazo[1,2-a]pyridin-3-amine]	11.3	1.88	
Cc1ccc(Cl)c(-c2nc3ccccn3c2NC2CCCCC2)c1F [Compound 74, 2-(6-chloro-2-fluoro-3-methylphenyl)-N-cyclohexylimidazo[1,2-a]pyridin-3-amine]	90	2.36	
